# Experiments:
# [1] = test system: PLP 139-151 stimulated splenocytes; assay: Splenic immune responses (proliferation, cytokines) in SJL mice with EAE; format: in vivo; settings: day 52 after disease induction, vs vehicle
# Method: (§1) Spleens were harvested either after deep anesthesia prior to perfusion or after euthanasia. Splenocytes were stimulated with the indicated autoantigens at […], and proliferation assessed using standard H3 incorporation assays, as described. Supernatants were collected after 48 and 72 hours, and levels of TNF-i, IFN-γ, 11,6, and 1 L5 were determined by cytometric bead array (BD Biosciences), as described. EAE clinical disease severity was compared between treatment groups using the Friedman test; histopathological changes were assessed using 1×4 ANOVAs; uterine weights, proliferative responses and cytokine levels were compared between treatment groups using Student t-test, and time on rotorod was compared between treatment groups using ANOVA.
# C57BL/6 mice with EAE [2] = assay: Clinical severity of MOG 35-55 induced active EAE (Example 6); format: in vivo; settings: vs vehicle
# [3] = test system: MOG 35-55 stimulated splenocytes; assay: Autoantigen specific cytokine production by splenocytes in C57BL/6 EAE (Example 6); format: in vivo, mice; settings: vs vehicle
# Method: as §1
# [4] = test system: uterus (positive control tissue) of ovariectomized C57BL/6 mice; assay: Uterine weights to assess dosing (Example 6); format: in vivo
# Method: Uterine weight was used as a positive control to assess dosing of estrogen agonists. Daily subcutaneous injections of vehicle, estradiol, PPT, or DPN, as well as a combination of ITT with DPN, were administered for ten days at indicated doses to ovariectomized mice. Following euthanasia, the uterus was extracted, then fat, connective tissue, and excess fluid removed in order to obtain the uterine weight, as described. EAE clinical disease severity was compared between treatment groups using the Friedman test; histopathological changes were assessed using 1×4 ANOVAs; uterine weights, proliferative responses and cytokine levels were compared between treatment groups using Student t-test, and time on rotorod was compared between treatment groups using ANOVA.
# [5] = test system: spinal cords of mice with EAE; assay: Spinal cord histopathology and immunohistochemistry in EAE (Example 6); format: in vivo
# Excerpt: Mice were deeply anesthetized with isoflurane and perfused transcardially with ice-cold 0.9% saline, followed by 10% formalin. Spinal cord columns were removed and post-fixed overnight in 10% formalin and cryoprotected with 20% sucrose solution in PBS. Spinal cords were removed from the column and cut in 3 parts (cervical, thoracic and lumbar) and embedded in gelatin/sucrose mix. Spinal cord regions in gelatin were further postfixed and stored in 20% sucrose. Free-floating sections (25 μm thick) were cut coronally with a sliding microtome and collected serially in PBS.
# Serial sections were mounted on slides and stained with Hematoxylin & eosin (H&E) or Nissl. Consecutive sections were also examined by immunohistochemistry. Briefly, 25 μm free-floating sections were permeabilized in 0.3% Triton X-100 in PBS and blocked with 10% normal goat serum. White matter immunostaining was enhanced by treating sections with 95% ethanol/5% acetic acid for 15 minutes prior to permeabilization and blocking. To detect specific cell types and structures, sections were pre-incubated with primary antibodies in PBS solution containing 2% NGS for 2 hours at room temperature, then overnight at […]. The following primary antibodies were used: anti-133 tubulin and anti-neurofilament-NF200 (monoclonal, Chemicon; polyclonal Sigma Biochemical), anti-neuronal specific nuclear protein (NeuN), anti-CD4S (Chemicon), and anti-MW (Chemicon). The second antibody step was performed by labeling with antibodies conjugated to TRITC, FITC and Cy5 (Vector Labs and Chemicon). IgG-control experiments were performed for all primary antibodies, and no staining was observed under these conditions. To assess the number of cells, a nuclear stain 4′,6-Diamidino-2-phenylindole, DAPI (2 ng/ml; Molecular Probes) was added for 15 minutes prior to final washes after secondary antibody addition. The sections were mounted on slides, dried and coverslipped in fluoromount G (Fisher Scientific).
# To quantify immunostaining results, sections from spinal cord levels T1-T5 were examined, six from each mouse, with n=3 mice per treatment group, for a total of 18 sections per treatment group. Images were captured under microscope (4×, 10× or 40×) using the DP70 Image software and a DP70 camera (both from Olympus). Identical tight intensity and exposure times were applied to all photographs from each experimental set. Images from the same areas of spinal cord were compared (TI-IS) and were acquired separately from delineated whole gray and white mailer regions. The middle region of the ventral horn was the focus for gray matter analysis, while the area lateral to the ventral horn was the focus for white matter analysis. Six gray matter and six white matter pictures were collected from the two sides of TI-IS sections (100 jim apart) from three animals in each treatment group. All images were converted to grayscale and then analyzed by density measurement with ImageJ vi 0.29 (the Windows version of NIH Image), downloaded from rsb.info.nih.gov/ij. A fixed threshold range of 0 to 160 was chosen to highlight the staining signals in normal spinal cord sections, and the total area within this range was measured, averaged, and compared.
# Increase in total number of infiltrating cells after induction of EAE was measured by density measurements of DAPI nuclei in the whole white matter. Neuronal cells were quantified by counting the NeuN^+/β3-tubulin^+/DAPI^+ cells per mm2 in the whole gray matter. Both white and gray matter assessments occurred in the TI-IS spinal cord sections. Laser scanning confocal microscopic scans at 40× were performed on Mac 3^+/β3-tubulin^+ immunostained spinal cord sections corresponding to levels 11-15 ventral horn. […]
# C57BL/6 mice with EAE [6] = assay: Rotarod testing of motor performance during EAE; format: in vivo
# Method: Motor behavior was tested up to two times per week for each mouse using a rotarod apparatus (Med Associates mc, St. Albans, Vt.). Briefly, animals were placed on a rotating horizontal cylinder for a maximum of 200 seconds. The amount of time the mouse remained walking on the cylinder, without falling, was recorded. Each mouse was tested on a speed of 3-30 rpm and given three trials for any given day. The three trials were averaged to report a single value for an individual mouse, and then averages were calculated for all animals within a given treatment group. The first two trial days, prior to immunization (day 0), served as practice trials.
# EAE clinical disease severity was compared between treatment groups using the Friedman test; histopathological changes were assessed using 1×4 ANOVAs; uterine weights, proliferative responses and cytokine levels were compared between treatment groups using Student t-test, and time on rotorod was compared between treatment groups using ANOVA.
# SJL mice with EAE = assay: PLP 139-151 induced active EAE in SJL mice, relapses; format: in vivo
# [7] = early (day 19) and later (day 40) stages of EAE
# [8] = day 19 and day 40, vs normal mice
smiles,measurement,setting,value
"N#CC(Cc1ccc(O)cc1)c1ccc(O)cc1 (stereo not shown) [DPN, Diarylpropionitrile]","Cytokine (TNFα, IFNγ) production during the PLP 139-151 specific response",[1],No significant differences
same,Proliferation during the PLP 139-151 specific response,[1],No significant differences
same,Clinical scores (EAE 0-5 scale),"C57BL/6 mice with EAE [2]; DPN 8 mg/kg/day s.c., ovariectomized C57BL/6, early in disease (up to day 20 after induction)",not significantly different
same,Clinical scores (EAE 0-5 scale),"C57BL/6 mice with EAE [2]; DPN 8 mg/kg/day s.c., ovariectomized C57BL/6, later during EAE (following day 30 after induction)",significantly improved
same,Clinical scores (EAE 0-5 scale),"C57BL/6 mice with EAE [2]; DPN, ovariectomized ERβ KO C57BL/6 mice",no different
same,Anti-inflammatory cytokine IL5,[3]; [7],not statistically different from vehicle treatment
same,"Levels of proinflammatory cytokines (TNFα, IFNγ, and IL6)",[3]; [7],not statistically different from vehicle treatment
same,IL10 production,[3],No differences
same,PPT 3.3 mg/kg/day mediated increase in uterine weight,"[4]; DPN 8 mg/kg/day in combination with PPT, 10 days",antagonized
same,Uterine weight,"[4]; DPN alone 8 mg/kg/day s.c. for 10 days, ovariectomized C57BL/6",no effect on uterine weight
same,"White matter cell density, myelin density, axonal numbers and NeuN+ cells","[5]; ERβ knock out mice with EAE, day 38-40",does not prevent white and gray matter pathology
same,MBP immunoreactivity in dorsal column (myelin density),[5]; [8],no significant decreases
same,Neurofilament stained axon numbers in white matter,[5]; [8],no significant reduction in axon numbers
same,NeuN+ cell numbers in gray matter,"[5]; early (day 19) and later (day 40) time points, vs healthy controls","fewer, but not significantly different from those in healthy controls"
same,CD45 staining in white matter,"[5]; early and later time points, vs vehicle treated EAE",did not have reduced CD45 staining
same,"Inflammation, white matter cell density (DAPI+ cells) of thoracic cord","[5]; early stage of EAE (day 19), vs vehicle treated EAE",not significantly different from those in vehicle treated
same,"Inflammation, white matter cell density (DAPI+ cells) of thoracic cord","[5]; later time point (day 40), vs vehicle",no different from that in vehicle treated
same,Mean time on rotarod (motor function),"C57BL/6 mice with EAE [6]; ERβ KO mice with EAE, later phase of disease",no improvement was observed
same,Mean time on rotarod (motor function),"C57BL/6 mice with EAE [6]; ovariectomized wild type C57BL/6 with EAE, after day 30",significant recovery of motor function
same,Relapses (mice with relapse / mice),"SJL mice with EAE; DPN treated SJL mice, relapses between days 36 and 52, vehicle 10/13",5/13
same,Relapses (percent of mice),"SJL mice with EAE; DPN treated SJL mice, relapses between days 36 and 52, vehicle 77%",33%
same,"Incidence, day of onset, peak clinical scores","SJL mice with EAE; DPN vs vehicle, SJL mice",no difference
